Data: ChEMBL document CHEMBL5346879, “Identification of a short ACE2-derived stapled peptide targeting the SARS-CoV-2 spike protein” (Eur J Med Chem, 2023)
Where a SMILES comes first, the peptide text is derived from it. Bridges are numbered along the chain shown (N, C = ends). [ ]: non-standard residue; d: D form. S5 = C=CCCC[C@](C)(N)C(=O)O

Assays:
[1] = Stability in human plasma assessed as peptide degradation at 200 ug/ml incubated for 48 hrs by LC-MS/MS analysis; type: ADME, cell-free; settings: at 200 µg/mL
[2] = target: Spike glycoprotein/Angiotensin-converting enzyme 2 (Severe acute respiratory syndrome coronavirus 2, UniProt P0DTC2); experiment: Inhibition of SARS-CoV-2 spike protein RBD- human ACE2 interaction incubated for 1 hr by colorimetric ELISA assay
[3] = target: Spike glycoprotein/Angiotensin-converting enzyme 2 (Severe acute respiratory syndrome coronavirus 2) (UniProt Q9BYF1+P0DTC2); experiment: Inhibition of SARS-CoV-2 spike protein RBD- human ACE2 interaction at 30 uM incubated for 1 hr by colorimetric ELISA assay relative to control

Row | Compound | Stability [1] | IC50 [2] [µM] | inhibition [3] [%]
1 | CC(C)C[C@@H]1NC(=O)[C@H](CC(=O)O)NC(=O)[C@H](CCC(=O)O)NC(=O)[C@@](C)(NC(=O)[C@H](CCC(=O)O)NC(=O)[C@@H](N)Cc2c[nH]cn2)CCC/C=C\CCC[C@@](C)(C(=O)N[C@@H](Cc2ccc(O)cc2)C(=O)N[C@@H](CCC(N)=O)C(N)=O)NC1=O (H-HE[S5]EDL[S5]YQ-NH2; staple (Z) 3-7) | Stable | 21 | 55
2 | H-HEAEDLFYQ-NH2 | Stable |  | 
